Experimental findings from patent US7253211B2, “(R)-chiral halogenated substituted fused heterocyclic amino compounds useful for inhibiting cholesterol ester transfer protein activity” (Pfizer Inc., priority 1999, dated 2007) are described below.

In series [1] the test system is CETP. Put plainly: Assay of CETP Inhibition In Vivo: CETP-mediated transfer in hamster. The arrangement: species or system golden Syrian hamsters. The following applies: single oral dose 10 mpk.
Protocol: Assay of CETP Inhibition In Vivo.
Male golden Syrian hamsters were maintained on a diet of chow containing 0.24% cholesterol for at least two weeks prior to the study. For animals receiving intravenous dosing immediately before the experiment, animals were anesthetized with pentobarbital. Anesthesia was maintained throughout the experiment. In-dwelling catheters were inserted into the jugular vein and carotid artery. At the start of the experiment all animals received 0.2 mL of a solution containing [^3H]CE-HDL into the jugular vein. […] After centrifugation, the resulting supernatant (25 μL) containing the HDL was analyzed for radioactivity using a liquid scintillation counter.
(§1) The percentage [^3H]CE transferred from HDL to LDL and VLDL (% transfer) was calculated based on the total radioactivity in equivalent plasma samples before precipitation.
Alternatively, conscious, non-anesthetized animals received an oral gavage dose of test compound as a suspension in 0.1% methyl cellulose in water. At a time determined for each compound at which plasma levels of the test substance reached their peak (Cmax) after oral dosing, the animals were anesthetized with pentobarbital and then dosed with 0.2 mL of a solution containing [^3H]CE-HDL into the jugular vein as described above. […]
The target in a further series is T1, human CETP (hCETP) (Homo sapiens, UniProt P11597).
T1 construct: expressed in transfected cells; host or cells: transgenic C57Bl/6 mice homozygous for the hCETP gene
T1 sequence (P11597 18-493): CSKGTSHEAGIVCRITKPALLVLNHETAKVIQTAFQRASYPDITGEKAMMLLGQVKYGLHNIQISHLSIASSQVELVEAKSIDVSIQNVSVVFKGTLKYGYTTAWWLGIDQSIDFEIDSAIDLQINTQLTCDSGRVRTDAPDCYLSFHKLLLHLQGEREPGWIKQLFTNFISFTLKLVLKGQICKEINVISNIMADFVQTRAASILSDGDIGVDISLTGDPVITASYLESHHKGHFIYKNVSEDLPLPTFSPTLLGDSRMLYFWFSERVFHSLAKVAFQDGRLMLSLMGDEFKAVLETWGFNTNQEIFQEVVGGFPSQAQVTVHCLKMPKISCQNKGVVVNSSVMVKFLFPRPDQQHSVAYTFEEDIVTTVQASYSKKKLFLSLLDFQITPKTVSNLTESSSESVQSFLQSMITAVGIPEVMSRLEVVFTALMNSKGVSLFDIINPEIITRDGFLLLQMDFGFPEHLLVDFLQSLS
Put plainly: Assay of CETP Inhibition In Vivo: CETP-mediated transfer in hCETP mice. The note with it: single oral dose 60 mpk.

The test system of series [2] is plasma HDL. Put plainly: Assay of Plasma HDL Elevation In Vivo: lipoprotein profile in hamster. More on the design: species or system Syrian Golden hamsters. The following applies: oral dose 30 mpk qd, 5 days. As for the experimental part: Assay of Plasma HDL Elevation In Vivo.
Syrian Golden hamsters were made hypercholesterolemic by feeding cholesterol supplemented chow for a minimum of two weeks, as described above. Test compounds were administered orally in selected aqueous or oil based vehicles for up to 1 week. Serum was obtained and analyzed by precipitation or size exclusion chromatography for the relative abundance of VLDL, LDL and HDL.

In series [3] the test system is plasma HDL. The experiment in a line: Assay of Plasma HDL Elevation In Vivo: lipoprotein profile in hCETP mice. More on the design: species or system C57b1 mouse expressing human CETP. The following applies: oral dose 30 mpk qd, 5 days. How it is done: Alternatively, a strain of C57b1 mouse was made to transgenicaly express human CETP. […] The hCETP mice were made hypercholesterolemic by feeding cholesterol and fat supplemented chow for a minimum of two weeks, as described above. Test compounds were administered orally in selected aqueous or oil based vehicles for up to 1 week. Serum was obtained and analyzed by size exclusion chromatography for the relative abundance of VLDL, LDL and HDL.

Series [4] concerns plasma HDL. The experiment in a line: Assay of Plasma HDL Elevation In Vivo: cynomologous monkeys. The note with it: oral gavage 10 mpk q.d. up to 11 days, corn oil based vehicle. As for the experimental part: Alternatively, cynomologous monkeys were maintained on a normal chow diet. […] Plasma levels of drug were detected throughout the experiment in treated animals at ranges of 0.1-1.5 μg/mL. Periodically, plasma samples were taken and analyzed for total cholesterol and HDL.

The test system of series [5] is plasma HDL. The experiment in a line: Assay of Plasma HDL Elevation In Vivo: rabbits. How it is done: Alternatively, rabbits were maintained on a normal chow diet. […] Plasma concentrations of drug were detected throughout the duration of the pump infusion in treated animals and averaged 1.2 μg/mL. Periodically, plasma samples were taken and analyzed for triglycerides, total cholesterol, and HDL.

The target of series [6] is T2, CETP (Homo sapiens, UniProt P11597).
T2 sequence (P11597 18-493): T1 sequence (P11597 18-493)
The experiment in a line: Assay of CETP Inhibition Using Purified Components (Reconstituted Buffer Assay). The following applies: Reconstituted Buffer Assay; read-out: IC50. The series is classed as biochemical. More on the design: made in house; host or cells: CHO cells (serum-free conditioned medium). As for the experimental part: Assay of CETP Inhibition Using Purified Components (Reconstituted Buffer Assay)
The ability of compounds to inhibit CETP activity was assessed using an in vitro assay that measured the rate of transfer of radiolabeled cholesteryl ester ([^3H]CE) from HDL donor particles to LDL acceptor particles. Details of the assay are provided by Glenn, K. C. et al. (Glenn and Melton, “Quantification of Cholesteryl Ester Transfer Protein (CETP): A) CETP Activity and B) Immunochemical Assay of CETP Protein,” Meth. […] To measure CETP activity, [^3H]CE-labeled-HDL, LDL, CETP and assay buffer (50 mM tris(hydroxymethyl)aminomethane, pH 7.4; 150 mM sodium chloride; 2 mM ethylenediamine-tetraacetic acid (EDTA); 1% bovine serum albumin) were incubated in a final volume of 200 μL, for 2 hours at 37° C. in 96 well plates. […] The inhibitors were then diluted 1:1 with CETP in assay buffer, and then 25 μL of that solution was mixed with 175 μL of lipoprotein pool for assay. Following incubation, LDL was differentially precipitated by the addition of 50 μL of 1% (w/v) dextan sulfate/0.5 M magnesium chloride, mixed by vortex, and incubated at room temperature for 10 minutes. A potion of the solution (200 μL) was transferred to a filter plate (Millipore). After filtration, the radioactivity present in the precipitated LDL was measured by liquid scintillation counting.
This value was defined as the IC50.

The target of series [7] is T2, CETP. Put plainly: Assay of CETP Inhibition in Human Plasma. The series is classed as biochemical. The arrangement: Blood was obtained from healthy volunteers; from tissue; host or cells: human EDTA plasma pool from healthy volunteers. The following applies: human EDTA plasma pool, [3H]CE-HDL, 37° C., 4 hours. As for the experimental part:
Assay of CETP Inhibition in Human Plasma
Blood was obtained from healthy volunteers, recruited from the personnel of Monsanto Company, Saint Louis, Mo. Blood was collected in tubes containing EDTA (EDTA plasma pool). The EDTA human plasma pool, previously stored at −20° C., was thawed at room temperature and centrifuged for 5 minutes to remove any particulate matter. […] Equal volumes (396 μL) of the plasma containing the [^3H]CE-HDL were added by pipette into micro tubes (Titertube®, Bio-Rad laboratories, Hercules, Calif.). Inhibitor compounds, dissolved as 20-50 mM stock solutions in DMSO, were serially diluted in DMSO (or an alternative solvent in some cases, such as dimethylformamide or ethanol). Four μL of each of the serial dilutions of inhibitor compounds or DMSO alone were then added to each of the tubes containing plasma (396 μL). After mixing, triplicate aliquots (100 μL) from each plasma tube were then transferred to wells of 96-well round-bottomed polystyrene microtiter plates (Corning, Corning, N.Y.). Plates were sealed with plastic film and incubated at 37° C. for 4 hours. “Test” samples contained plasma with dilutions of inhibitor compounds. “Control” samples contained plasma with DMSO diluted to the same concentration as the test samples, but without inhibitor. “Blank” samples were prepared as “control” samples, but were left in the micro tubes at 4° C. for the 4 hour incubation and were then added to the microtiter wells at the end of the incubation period. VLDL and LDL were precipitated by the addition of 10 μL of precipitating reagent (1% (w/v) dextran sulfate (Dextralip50)/0.5 M magnesium chloride, pH 7.4) to all wells. The wells were mixed on a plate mixer and then incubated at ambient temperature for 10 min. The plates were then centrifuged at 1000×g for 30 min at 10° C. The supernatants (50 μL) from each well were then transferred to Picoplate™ 96 plate wells (Packard, Meriden, Conn.) containing Microscint™-40 (Packard, Meriden, Conn.). The plates were heat-sealed (TopSeal™-P, Packard, Meriden, Conn.) according to the manufacturer's directions and mixed for 30 min. Radioactivity was measured on a microplate scintillation counter (TopCount, Packard, Meriden, Conn.). The maximum percentage transfer in the control wells (% transfer) was determined using the following equation:
[formula] The percentage of transfer relative to the control (% control) was determined in the wells containing inhibitor compounds was determined as follows:
[formula] IC50 values were then calculated from plots of % control versus concentration of inhibitor compound.

The mark [8] stands for this setting: Alzet pump 30 mg/day/animal, after fourteen days.

pIC50: −log10 of the molar value.

Description for human CETP (hCETP): C57B1/6 mice that were homozygous for the hCETP gene were maintained on a high fat chow diet, such as TD 88051, as described by Nishina et al. (J Lipid Res., 31, 859-869 (1990)) for at least two weeks prior to the study. Mice received an oral gavage dose of test compound as a suspension in 0.1% methyl cellulose in water or an intravenous bolus injection of test compound in 10% ethanol and 90% polyethylene glycol. Control animals received the vehicle solution without test compound by oral gavage or by an intravenous bolus injection. At the start of the experiment all animals received 0.05 mL of a solution containing [^3H]CE-HDL into the tail vein. [^3H]CE-HDL is a preparation of human HDL containing tritium-labeled cholesteryl ester, and was prepared according to the method of Glenn et al. (Meth. Enzymol., 263, 339-351 (1996)). After 30 minutes, the animals were exsanguinated and blood collected in standard microtainer tubes containing ethylenediamine tetraacetic acid. Blood samples were mixed well and kept on ice until the completion of the experiment. […] The plasma was separated and analyzed by gel filtration chromatography and the relative proportion of [^3H]CE in the VLDL, LDL and HDL regions was determined.
as §1

Broadly, the inhibition is the share of the control response that was lost under treatment. Read a high inhibition as a strong effect. As for `CCc1cc(Oc2cccc(N(Cc3cccc(OC(F)(F)C(F)F)c3)C[C@@H](O)C(F)(F)F)c2)ccc1Cl` [Example 8, (2R)-3-[[3-(4-chloro-3-ethylphenoxy)phenyl][[3-(1,1,2,2-tetrafluoro-ethoxy)phenyl]methyl]amino]-1,1,1-trifluoro-2-propanol], in the series with CETP [1], the “% Inhibition of Transfer” value is on record as 35%. The compound also registered an inhibition at 60 mg/kg at human CETP (hCETP) of 40%. Besides, in the series with plasma HDL [2], the “% Change in Lipoprotein Profile HDL” value was 12%, the “% Change in Lipoprotein Profile LDL” value was −12% and the “% Change in Lipoprotein Profile VLDL” value is recorded as −22%. Also, in the series on plasma HDL [3], the “% Change in Lipoprotein Profile HDL” value stood at 12% and the “% Change in Lipoprotein Profile LDL” value stood at 20%. The “Plasma levels of drug” value with plasma HDL [4] lay within 100 to 1500 ng/mL. In the series with plasma HDL [5] (Alzet pump 30 mg/day/animal up to 14 days, ethanol:propylene glycol vehicle), the “Plasma concentrations of drug (average)” value came to 1200 ng/mL. Moreover, in the series with plasma HDL [5] (setting [8]), the “decrease in HDL compared to pre-dose levels” value is recorded as 12%, the “decrease in total cholesterol compared to pre-dose levels” value was 19% and the “increase in triglycerides compared to pre-dose levels” value is listed as 17%.

A word on the pIC50: it is −log10 of the IC50, conventionally taken in molar units. Take `O[C@H](CN(Cc1cccc(OC(F)(F)C(F)F)c1)c1cccc(Oc2cc(F)ccc2Br)c1)C(F)(F)F` [Example 43, (2R)-3-[[3-(2-bromo-5-fluorophenoxy)phenyl][[3-(1,1,2,2-tetrafluoroethoxy)phenyl]methyl]amino]-1,1,1-trifluoro-2-propanol]: the pIC50 on CETP [6] was 7.24; at CETP [7] it was 5.82.

On to `O[C@H](CN(Cc1cccc(OC(F)(F)F)c1)c1cccc(Oc2ccc(F)cc2)c1)C(F)(F)F` [Example 42], for which the pIC50 at CETP [6] was 6.42; at CETP [7], 4.96.
